Measurements from PubChem BioAssay (NCI).
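These data come from cells grown in 96-well plates and exposed to compound for 48 hours at five concentrations. TGI: total growth inhibition.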

Columns and labels:
Experiment in all cases: growth of human tumour cells (NCI), 48 h
[1] = system: 786-0 renal
[2] = system: A498 renal
[3] = system: ACHN renal
[4] = system: BT-549 breast
[5] = system: CAKI-1 renal
[6] = system: COLO 205 colon
[7] = system: DU-145 prostate
[8] = system: EKVX NSCLC
[9] = system: HCC-2998 colon
[10] = system: HCT-116 colon
[11] = system: HCT-15 colon
[12] = system: HL-60(TB) leukemia
[13] = system: HOP-62 NSCLC
[14] = system: HS 578T breast
[15] = system: HT29 colon
[16] = system: IGROV1 ovarian
[17] = system: K-562 leukemia
[18] = system: KM12 colon
[19] = system: LOX IMVI melanoma
[20] = system: MALME-3M melanoma
[21] = system: MCF7 breast
[22] = system: MDA-MB-231 breast
[23] = system: MDA-MB-435
[24] = system: MDA-N
[25] = system: MOLT-4 leukemia
[26] = system: NCI-H226 lung
[27] = system: NCI-H23 lung
[28] = system: NCI-H460 lung
[29] = system: NCI-H522 lung
[30] = system: NCI/ADR-RES ovarian
[31] = system: OVCAR-3 ovarian
[32] = system: OVCAR-4 ovarian
[33] = system: OVCAR-5 ovarian
[34] = system: OVCAR-8 ovarian
[35] = system: PC-3 prostate
[36] = system: RPMI-8226 leukemia
[37] = system: SF-268 CNS
[38] = system: SF-295 CNS
[39] = system: SK-MEL-2 melanoma
[40] = system: SK-MEL-28 melanoma
[41] = system: SK-MEL-5 melanoma
[42] = system: SN12C renal
[43] = system: SNB-19 CNS
[44] = system: SNB-75 CNS
[45] = system: SR leukemia
[46] = system: SW-620 colon
[47] = system: T-47D breast
[48] = system: TK-10 renal
[49] = system: U251 CNS
[50] = system: UACC-257 melanoma
[51] = system: UACC-62 melanoma
[52] = system: UO-31 renal
[53] = system: A549 NSCLC
[54] = system: CCRF-CEM leukemia
[55] = system: M14 melanoma
[56] = system: RXF 393 renal
[57] = system: SF-539 CNS

SMILES: CC(C)(C)C1CCC(=O)/C(=C/CC2CC(=O)N(c3ccccc3)C(=O)C2)C1 (stereo not given)
- TGI [1]: 38.3 µM
- TGI [2]: 61.2 µM
- TGI [3]: 42.9 µM
- TGI [4]: 44.5 µM
- TGI [5]: 41.6 µM
- TGI [6]: 41.2 µM
- TGI [7]: 40 µM
- TGI [8]: 60.2 µM
- TGI [9]: 43.5 µM
- TGI [10]: 29.3 µM
- TGI [11]: 33.2 µM
- TGI [12]: 94.1 µM
- TGI [13]: 72.8 µM
- TGI [14]: 94.5 µM
- TGI [15]: 43.6 µM
- TGI [16]: 44.5 µM
- TGI [17]: 48.3 µM
- TGI [18]: 33.6 µM
- TGI [19]: 29.7 µM
- TGI [20]: 36.7 µM
- TGI [21]: 49.5 µM
- TGI [22]: > 100 µM
- TGI [23]: 64.8 µM
- TGI [24]: 66.9 µM
- TGI [25]: 75.2 µM
- TGI [26]: 32 µM
- TGI [27]: 34.6 µM
- TGI [28]: 30.2 µM
- TGI [29]: 39.2 µM
- TGI [30]: 37.7 µM
- TGI [31]: 47.7 µM
- TGI [32]: 77.4 µM
- TGI [33]: 41.6 µM
- TGI [34]: 39.8 µM
- TGI [35]: 70.2 µM
- TGI [36]: 49.1 µM
- TGI [37]: 47.1 µM
- TGI [38]: > 100 µM
- TGI [39]: 42.9 µM
- TGI [40]: 47.4 µM
- TGI [41]: 31.7 µM
- TGI [42]: 41.3 µM
- TGI [43]: 51.6 µM
- TGI [44]: 53.3 µM
- TGI [45]: 41.5 µM
- TGI [46]: 53.5 µM
- TGI [47]: 48.6 µM
- TGI [48]: 31.8 µM
- TGI [49]: 31 µM
- TGI [50]: 28.2 µM
- TGI [51]: 27.7 µM
- TGI [52]: 30.2 µM

SMILES: N#Cc1ccc(-c2nc3c(N)ncnc3o2)cc1
- TGI [1]: > 100 µM
- TGI [2]: > 100 µM
- TGI [53]: > 100 µM
- TGI [3]: > 100 µM
- TGI [4]: > 100 µM
- TGI [5]: > 100 µM
- TGI [54]: > 100 µM
- TGI [6]: > 100 µM
- TGI [7]: > 100 µM
- TGI [8]: > 100 µM
- TGI [9]: > 100 µM
- TGI [10]: > 100 µM
- TGI [11]: > 100 µM
- TGI [12]: > 100 µM
- TGI [13]: > 100 µM
- TGI [14]: > 100 µM
- TGI [15]: > 100 µM
- TGI [16]: > 100 µM
- TGI [17]: > 100 µM
- TGI [18]: > 100 µM
- TGI [19]: > 100 µM
- TGI [55]: > 100 µM
- TGI [21]: > 100 µM
- TGI [22]: > 100 µM
- TGI [23]: > 100 µM
- TGI [24]: > 100 µM
- TGI [25]: > 100 µM
- TGI [26]: > 100 µM
- TGI [27]: > 100 µM
- TGI [28]: > 100 µM
- TGI [29]: > 100 µM
- TGI [30]: > 100 µM
- TGI [31]: > 100 µM
- TGI [33]: > 100 µM
- TGI [34]: > 100 µM
- TGI [35]: > 100 µM
- TGI [36]: > 100 µM
- TGI [56]: > 100 µM
- TGI [37]: > 100 µM
- TGI [38]: > 100 µM
- TGI [57]: > 100 µM
- TGI [39]: > 100 µM
- TGI [40]: > 100 µM
- TGI [41]: > 100 µM
- TGI [42]: > 100 µM
- TGI [43]: > 100 µM
- TGI [45]: > 100 µM
- TGI [46]: > 100 µM
- TGI [47]: > 100 µM
- TGI [48]: > 100 µM
- TGI [50]: > 100 µM
- TGI [51]: > 100 µM
- TGI [52]: > 100 µM
